Measurements reported in US11478478B2, “2,3-disubstituted 1-acyl-4-amino-1,2,3,4-tetrahydroquinoline derivatives and their use as bromodomain inhibitors” (GLAXOSMITHKLINE INTELLECTUAL PROPERTY (NO.2) LIMITED, priority 2013, dated 2022).
Structures can show the parent of a compound that is named as a salt.

Target: T1, BRD4 BD2 (Homo sapiens, UniProt O60885, Y97A)
T1 construct: BRD4 (1-477) (Y97A) and (Y390A); made in house; host or cells: E. coli (pET15b vector)
Experiment: TR-FRET binding assay, BRD4 BD2 (BD1-mutated protein)
Details: read-out: pIC50 in the BRD4 BD2 assay (converted)
Description: Time Resolved Fluorescence Resonance Energy Transfer (TR-FRET) Assay Binding was assessed using a time resolved fluorescent resonance energy transfer binding assay. This utilises a 6 His purification tag at the N-terminal of the proteins as an epitope for an anti-6 His antibody labeled with Europium chelate (PerkinElmer AD0111) allowing binding of the Europium to the proteins which acts as the donor fluorophore. A small molecule, high affinity binder of the bromodomains BRD2, BRD3, BRD4 and BRDT has been labeled with Alexa Fluor647 (Reference Compound X) and this acts as the acceptor in the FRET pair.
In the absence of a competing compound, excitation of the Europium causes the donor to emit at λ618 nm which excites the Alexa labelled bromodomain binding compound leading to an increased energy transfer that is measurable at λ647 nM. In the presence of a sufficient concentration of a compound that can bind these proteins, the interaction is disrupted leading to a quantifiable drop in fluorescent resonance energy transfer.
The binding of the compounds of formula (I) to Bromodomains BRD2, BRD3, BRD4 and BRDT was assessed using mutated proteins to detect differential binding to either Binding Domain 1 (BD1) or Binding Domain 2 (BD2) on the bromodomain. These single residue mutations in the acetyl lysine binding pocket greatly lower the affinity of the fluoroligand (Reference Compound X) for the mutated domain (>1000 fold selective for the non-mutated domain). Therefore in the final assay conditions, binding of the fluoroligand to the mutated domain cannot be detected and subsequently the assay is suitable to determine the binding of compounds to the single non-mutated bromodomain.
Recombinant Human Bromodomains [(BRD2 (1-473) (Y113A) and (Y386A), BRD3 (1-435) (Y73A) and (Y348A) BRD4 (1-477) (Y97A) and (Y390A) and BRDT (1-397) (Y66A) and (Y309A)] were expressed in E. coli cells (in pET15b vector for BRD2/3/4 and in pET28a vector for BRDT) with a 6-His tag at the N-terminal. The His-tagged Bromodomain pellet was resuspended in 50 mM HEPES (pH7.5), 300 mM NaCl, 10 mM imidazole & 1 μl/ml protease inhibitor cocktail and extracted from the E. coli cells using sonication and purified using a nickel sepharose high performance column, the proteins were washed and then eluted with a linear gradient of 0-500 mM imidazole with buffer 50 mM HEPES (pH7.5), 150 mM NaCl, 500 mM imidazole, over 20 column volumes. Final purification was completed by Superdex 200 prep grade size exclusion column. Purified protein was stored at −80° C. in 20 mM HEPES pH 7.5 and 100 mM NaCl. Protein identity was confirmed by peptide mass fingerprinting and predicted molecular weight confirmed by mass spectrometry.
All assay components were dissolved in buffer composition of 50 mM HEPES pH7.4, 50 mM NaCl, 5% Glycerol, 1 mM DTT and 1 mM CHAPS. The final concentration of bromodomain proteins were 10 nM and the Alexa Fluor647 ligand was at Kd. These components were premixed and 5 μl of this reaction mixture was added to all wells containing 50 nl of various concentrations of test compound or DMSO vehicle (0.5% DMSO final) in Greiner 384 well black low volume microtitre plates and incubated in dark for 30 minutes at rt. 5 μl of detection mixture containing 1.5 nM final concentration anti-6His Europium chelate was added to all wells and a further dark incubation of at least 30 minutes was performed. Plates were then read on the Envision platereader, (λex=317 nm, donor λem=615 nm; acceptor λem=665 nm; Dichroic LANCE dual). Time resolved fluorescent intensity measurements were made at both emission wavelengths and the ratio of acceptor/donor was calculated and used for data analysis. All data was normalized to the mean of 16 high (inhibitor control—Example 11 of WO 2011/054846A1) and 16 low (DMSO) control wells on each plate. A four parameter curve fit of the following form was then applied: y=a+((b−a)/(1+(10^/10^)^d) […]

Point of comparison: `CC(=O)N1c2cnccc2[C@H](Nc2ccccc2)[C@@H](C)[C@@H]1C` (racemic) [Example 115, rac-1-((2S,3R,4R)-2,3-dimethyl-4-(phenylamino)-3,4-dihydro-1,7-naphthyridin-1(2H)-yl)ethanone formate], IC50 100 nM. Against it:
- CC(=O)N1c2ccc(N3CCCC3C)cc2[C@H](Nc2ccccc2)[C@@H](C)[C@@H]1C (mixture of isomers) [Example 81, 1-((rac-2S,3R,4R)-2,3-dimethyl-6-(2-methylpyrrolidin-1-yl)-4-(phenylamino)-3,4-dihydroquinolin-1(2H)-yl)ethanone] — the same, 100 nM
- CC(=O)N1c2ccc(C3=CCOCC3)cc2[C@H](Nc2cccc(C)n2)[C@@H](C)[C@@H]1C1CC1 (racemic) [Example 85, rac-1-((2S,3R,4R)-2-cyclopropyl-6-(3,6-dihydro-2H-pyran-4-yl)-3-methyl-4-((6-methylpyridin-2-yl)amino)-3,4-dihydroquinolin-1(2H)-yl)ethanone, formic acid salt] — the same, 100 nM
- CC(=O)N1c2ccc(C3=CCNCC3)cc2[C@H](Nc2cccc(C)n2)[C@@H](C)[C@@H]1C1CC1 (racemic) [Example 87, rac-1-((2S,3R,4R)-2-cyclopropyl-3-methyl-4-((6-methylpyridin-2-yl)amino)-6-(1,2,3,6-tetrahydropyridin-4-yl)-3,4-dihydroquinolin-1(2H)-yl)ethanone] — the same, 100 nM
- CC(=O)N1c2ccc(C3=CCOCC3)cc2[C@@H](Nc2ccccn2)[C@H](C)[C@H]1C1CC1 (racemic) [Example 92, rac-1-((2S,3R,4R)-2-cyclopropyl-6-(3,6-dihydro-2H-pyran-4-yl)-3-methyl-4-(pyridin-2-ylamino)-3,4-dihydroquinolin-1(2H)-yl)ethanone] — the same, 100 nM
- CC(=O)N1c2ccc(N3CCNCC3)cc2[C@H](Nc2ccccc2)[C@@H](C)[C@@H]1C1CC1 (racemic) [Example 94, rac-1-((2S,3R,4R)-2-cyclopropyl-3-methyl-4-(phenylamino)-6-(piperazin-1-yl)-3,4-dihydroquinolin-1(2H)-yl)ethanone, hydrochloride] — the same, 100 nM
- CC(=O)N1c2ccc(N3CCNC(C)C3)nc2[C@H](Nc2ccccc2)[C@@H](C)[C@@H]1C1CC1 (mixture of isomers) [Example 107, 1-((rac-2S,3R,4R)-2-cyclopropyyl-3-methyl-6-(3-methylpiperazin-1-yl)-4-(phenylamino)-3,4-dihydro-1,5-naphthyridin-1(2H)-yl)ethanone] — higher, 1000 to 100000 nM
- CC(=O)N1c2ccc(N3CCNCC3)nc2[C@H](Nc2ccccc2)[C@@H](C)[C@@H]1C1CC1 (racemic) [Example 108, rac-1-((2S,3R,4R)-2-cyclopropyl-3-methyl-4-(phenylamino)-6-(piperazin-1-yl)-3,4-dihydro-1,5-naphthyridin-1(2H)-yl)ethanone] — higher, 1000 to 100000 nM
- CC(=O)N1c2ccc(N3CCC(N)CC3)nc2[C@H](Nc2ccccc2)[C@@H](C)[C@@H]1C1CC1 (racemic) [Example 109, rac-1-((2S,3R,4R)-6-(4-aminopiperidin-1-yl)-2-cyclopropyl-3-methyl-4-(phenylamino)-3,4-dihydro-1,5-naphthyridin-1(2H)-yl)ethanone] — higher, 1000 to 100000 nM
- CC(=O)N1c2ccc(N3CCOCC3)nc2[C@H](Nc2ccccc2)[C@@H](C)[C@@H]1C1CC1 (racemic) [Example 110, rac-1-((2S,3R,4R)-2-cyclopropyl-3-methyl-6-morpholino-4-(phenylamino)-3,4-dihydro-1,5-naphthyridin-1(2H)-yl)ethanone] — higher, 1000 to 100000 nM
- COc1ccc2c(n1)[C@H](Nc1cccc(C)n1)[C@@H](C)[C@H](C1CC1)N2C(C)=O (racemic) [Example 111, rac-1-((2S,3R,4R)-2-cyclopropyl-6-methoxy-3-methyl-4-((6-methylpyridin-2-yl)amino)-3,4-dihydro-1,5-naphthyridin-1(2H)-yl)ethanone] — higher, 1000 to 100000 nM
- CC(=O)N1c2ccc(O)nc2[C@H](Nc2cccc(C)n2)[C@@H](C)[C@@H]1C1CC1 (racemic) [Example 112, rac-1-((2S,3R,4R)-2-cyclopropyl-6-hydroxy-3-methyl-4-((6-methylpyridin-2-yl)amino)-3,4-dihydro-1,5-naphthyridin-1(2H)-yl)ethanone] — higher, 1000 to 100000 nM
- CC(=O)N1c2cccnc2[C@H](Nc2cccc(C)n2)[C@@H](C)[C@@H]1C1CC1 (racemic) [Example 113, rac-1-((2S,3R,4R)-2-cyclopropyl-3-methyl-4-((6-methylpyridin-2-yl)amino)-3,4-dihydro-1,5-naphthyridin-1(2H)-yl)ethanone] — higher, 1000 to 100000 nM
- CC(=O)N1c2ccccc2[C@H](Oc2ccccc2)[C@@H](C)[C@@H]1C1CC1 (racemic) [Example 119, rac-1-((2S,3S,4R)-2-cyclopropyl-3-methyl-4-phenoxy-3,4-dihydroquinolin-1(2H)-yl)ethanone] — the same, 100 nM
- CC(=O)N1c2ccccc2[C@H](Nc2cccc(CN)c2)[C@@H](C)[C@@H]1C1CC1 (racemic) [Example 124, rac-1-((2S,3R,4R)-4-((3-(aminomethyl)phenyl)amino)-2-cyclopropyl-3-methyl-3,4-dihydroquinolin-1(2H)-yl)ethanone, hydrochloride] — the same, 100 nM
- CC(=O)N1c2ccccc2[C@H](Nc2ccc(C(=O)O)cc2)[C@@H](C)[C@@H]1C1CC1 (racemic) [Example 127, rac-4-(((2S,3R,4R)-1-acetyl-2-cyclopropyl-3-methyl-1,2,3,4-tetrahydroquinolin-4-yl)amino)benzoic acid] — higher, 1000 to 100000 nM
- CNCCn1cc(-c2ccc3c(c2)[C@H](Nc2ccc(C#N)cc2)[C@@H](C)[C@H](C2CC2)N3C(C)=O)cn1 (racemic) [Example 134, rac-4-(((2S,3R,4R)-1-acetyl-2-cyclopropyl-3-methyl-6-(1-(2-(methylamino)ethyl)-1H-pyrazol-4-yl)-1,2,3,4-tetrahydroquinolin-4-yl)amino)benzonitrile] — the same, 100 nM
- CC(=O)N1c2ccc(F)cc2[C@H](Nc2ccc(C#N)cc2)[C@@H](C)[C@@H]1C (racemic) [Example 139, rac-4-(((2S,3R,4R)-1-acetyl-6-fluoro-2,3-dimethyl-1,2,3,4-tetrahydroquinolin-4-yl)amino)benzonitrile] — the same, 100 nM
- CC(=O)N1c2ccc(F)cc2[C@H](Nc2ccc(F)cn2)[C@@H](C)[C@@H]1C (racemic) [Example 141, rac-1-((2S,3R,4R)-6-fluoro-4-((5-fluoropyridin-2-yl)amino)-2,3-dimethyl-3,4-dihydroquinolin-1(2H)-yl)ethanone] — the same, 100 nM
- CC(=O)N1c2ccc(F)cc2[C@H](Nc2ccc(C#N)cn2)[C@@H](C)[C@@H]1C (racemic) [Example 143, rac-6-(((2S,3R,4R)-1-acetyl-6-fluoro-2,3-dimethyl-1,2,3,4-tetrahydroquinolin-4-yl)amino)nicotinonitrile] — the same, 100 nM
- CC(=O)N1c2ccc(F)cc2[C@H](Nc2ccc(C#N)cc2)[C@@H](C)[C@@H]1C1CC1 (racemic) [Example 161, rac-4-(((2S,3R,4R)-1-acetyl-2-cyclopropyl-6-fluoro-3-methyl-1,2,3,4-tetrahydroquinolin-4-yl)amino)benzonitrile] — the same, 100 nM
- CC(=O)N1c2ccc(C3=CCOCC3)cc2[C@H](Nc2ncccn2)[C@@H](C)[C@@H]1C1CC1 (racemic) [Example 177, rac-1-((2S,3R,4R)-2-cyclopropyl-6-(3,6-dihydro-2H-pyran-4-yl)-3-methyl-4-(pyrimidin-2-ylamino)-3,4-dihydroquinolin-1(2H)-yl)ethanone, formic acid salt] — the same, 100 nM
